Test system: patients with MUM
Assay: Adverse events regardless of study drug relationship
Format: in vivo, human
Protocol: Routine safety assessments, including laboratory assessments, physical examinations, vital signs and electrocardiograms (ECGs), were conducted at regular intervals throughout the study and more frequently as needed following patient assessment by the treating physician. Adverse events (AEs) were assessed continuously according to the National Cancer Institute Common Terminology Criteria for Adverse Events (NCI-CTCAE) v4.03.

CC1(N)CCN(c2cccnc2NC(=O)c2nc(-c3ncccc3C(F)(F)F)cnc2N)CC1 [LXS196]
3 (50.0) n (%): ALT increased, all grades (400 mg BID) | AST increased, all grades (400 mg BID) | Diarrhoea, all grades (400 mg BID) | Nausea, all grades (400 mg BID) | Vomiting, all grades (400 mg BID)
4 (26.7) n (%): ALT increased, all grades (300 mg QD) | Constipation, all grades (300 mg QD) | Patients with ≥1 AE, grade ≥3 (300 mg QD) | Rash, all grades (300 mg QD)
3 (16.7) n (%): Abdominal pain upper, all grades (300 mg BID (RDE)) | Dermatitis acneiform, all grades (300 mg BID (RDE)) | Hypotension, all grades (300 mg BID (RDE))
15 (83.3) n (%): Nausea, all grades (300 mg BID (RDE))
3 (20.0) n (%): Asthenia, all grades (300 mg QD) | Nasopharyngitis, all grades (300 mg QD) | Neutropenia, all grades (300 mg QD)
11 (61.1) n (%): Diarrhoea, all grades (300 mg BID (RDE))
4 (22.2) n (%): AST increased, all grades (300 mg BID (RDE)) | Asthenia, all grades (300 mg BID (RDE)) | Constipation, all grades (300 mg BID (RDE)) | Dry skin, all grades (300 mg BID (RDE))
1 (16.7) n (%): ALT increased, grade ≥3 (400 mg BID) | AST increased, grade ≥3 (400 mg BID) | Dermatitis acneiform, all grades (400 mg BID) | Dry skin, all grades (400 mg BID) | Fatigue, all grades (400 mg BID) | Hypotension, grade ≥3 (400 mg BID) | Neutropenia, all grades (400 mg BID) | Oedema peripheral, all grades (400 mg BID) | Rash, all grades (400 mg BID)
8 (44.4) n (%): Patients with ≥1 AE, grade ≥3 (300 mg BID (RDE)) | Vomiting, all grades (300 mg BID (RDE))
6 (33.3) n (%): Fatigue, all grades (300 mg BID (RDE))
4 (66.7) n (%): Hypotension, all grades (400 mg BID) | Patients with ≥1 AE, grade ≥3 (400 mg BID)
10 (66.7) n (%): Nausea, all grades (300 mg QD)
5 (27.8) n (%): ALT increased, all grades (300 mg BID (RDE)) | Oedema peripheral, all grades (300 mg BID (RDE)) | Rash, all grades (300 mg BID (RDE))
2 (33.3) n (%): Asthenia, all grades (400 mg BID) | Constipation, all grades (400 mg BID) | Decreased appetite, all grades (400 mg BID)
8 (53.3) n (%): Fatigue, all grades (300 mg QD)
14 (93.3) n (%): Patients with ≥1 AE, all grades (300 mg QD)
1 (6.7) n (%): ALT increased, grade ≥3 (300 mg QD) | AST increased, all grades (300 mg QD) | AST increased, grade ≥3 (300 mg QD) | Dermatitis acneiform, all grades (300 mg QD) | Dry skin, all grades (300 mg QD) | Hypotension, all grades (300 mg QD) | Neutropenia, grade ≥3 (300 mg QD)
18 (100) n (%): Patients with ≥1 AE, all grades (300 mg BID (RDE))
0 n (%): Abdominal pain upper, grade ≥3 (300 mg BID (RDE)) | Asthenia, grade ≥3 (300 mg BID (RDE)) | Blood creatinine increased, grade ≥3 (300 mg BID (RDE)) | Constipation, grade ≥3 (300 mg BID (RDE)) | Decreased appetite, grade ≥3 (300 mg BID (RDE)) | Dermatitis acneiform, grade ≥3 (300 mg BID (RDE)) | Dry skin, grade ≥3 (300 mg BID (RDE)) | Fatigue, grade ≥3 (300 mg BID (RDE)) | Hypotension, grade ≥3 (300 mg BID (RDE)) | Nasopharyngitis, grade ≥3 (300 mg BID (RDE)) | Nausea, grade ≥3 (300 mg BID (RDE)) | Neutropenia, all grades (300 mg BID (RDE)) | Neutropenia, grade ≥3 (300 mg BID (RDE)) | Rash, grade ≥3 (300 mg BID (RDE)) | Vomiting, grade ≥3 (300 mg BID (RDE)) | Abdominal pain upper, grade ≥3 (300 mg QD) | Asthenia, grade ≥3 (300 mg QD) | Blood creatinine increased, grade ≥3 (300 mg QD) | Constipation, grade ≥3 (300 mg QD) | Decreased appetite, all grades (300 mg QD) | Decreased appetite, grade ≥3 (300 mg QD) | Dermatitis acneiform, grade ≥3 (300 mg QD) | Diarrhoea, grade ≥3 (300 mg QD) | Dry skin, grade ≥3 (300 mg QD) | Fatigue, grade ≥3 (300 mg QD) | Hypotension, grade ≥3 (300 mg QD) | Nasopharyngitis, grade ≥3 (300 mg QD) | Nausea, grade ≥3 (300 mg QD) | Oedema peripheral, grade ≥3 (300 mg QD) | Rash, grade ≥3 (300 mg QD) | Vomiting, grade ≥3 (300 mg QD) | Abdominal pain upper, all grades (400 mg BID) | Abdominal pain upper, grade ≥3 (400 mg BID) | Asthenia, grade ≥3 (400 mg BID) | Blood creatinine increased, all grades (400 mg BID) | Blood creatinine increased, grade ≥3 (400 mg BID) | Constipation, grade ≥3 (400 mg BID) | Decreased appetite, grade ≥3 (400 mg BID) | Dermatitis acneiform, grade ≥3 (400 mg BID) | Diarrhoea, grade ≥3 (400 mg BID) | Dry skin, grade ≥3 (400 mg BID) | Fatigue, grade ≥3 (400 mg BID) | Nasopharyngitis, all grades (400 mg BID) | Nasopharyngitis, grade ≥3 (400 mg BID) | Nausea, grade ≥3 (400 mg BID) | Neutropenia, grade ≥3 (400 mg BID) | Oedema peripheral, grade ≥3 (400 mg BID) | Rash, grade ≥3 (400 mg BID) | Vomiting, grade ≥3 (400 mg BID)
6 (40.0) n (%): Diarrhoea, all grades (300 mg QD) | Vomiting, all grades (300 mg QD)
6 (100) n (%): Patients with ≥1 AE, all grades (400 mg BID)
2 (13.3) n (%): Abdominal pain upper, all grades (300 mg QD) | Blood creatinine increased, all grades (300 mg QD) | Oedema peripheral, all grades (300 mg QD)
2 (11.1) n (%): AST increased, grade ≥3 (300 mg BID (RDE)) | Blood creatinine increased, all grades (300 mg BID (RDE)) | Decreased appetite, all grades (300 mg BID (RDE)) | Nasopharyngitis, all grades (300 mg BID (RDE))
1 (5.6) n (%): ALT increased, grade ≥3 (300 mg BID (RDE)) | Diarrhoea, grade ≥3 (300 mg BID (RDE)) | Oedema peripheral, grade ≥3 (300 mg BID (RDE))
